# Reference: US20230027295A1, “FXIA INHIBITORS AND PREPARATION METHOD THEREFOR AND PHARMACEUTICAL USE THEREOF” (Shenzhen Salubris Pharmaceuticals Co., Ltd., priority 2019, published 2023)
# Legend:
# [1] = target: Human Factor XIa (Homo sapiens, UniProt P03951); test: Inhibition of human coagulation factor XIa by absorptiometry (substrate S-2366); type: biochemical; conditions: 37° C., 20 min incubation, absorbance 405 nm; read-out: hFXIa IC50
# Method: Example 50: Detection of the Biological Activity of the Compounds of the Present Invention on the Inhibition of Human Coagulation Factor XIa by Absorptiometry
# Buffer: 145 mM NaCl, 5 mM KCl, 1 mg/mL PEG 8000, 30 mM HEPES, pH 7.4
# 10 mM test compound dissolved in 100% DMSO was diluted with 100% DMSO to […]; 98 μL of FXIa enzyme solution (77.7 ng/mL) was added to each well of a 96-well plate, and 98 μL of buffer was added to the blank wells. 2 μL of compounds of different concentrations were added, and the blank and control wells were added with DMSO instead. They were mixed with a shaker, and incubated at 37° C. for 20 minutes.
# Finally, 100 μL of 800 μM substrate was added to each well, and its absorbance was measured at 405 nm.
# [2] = system: human plasma; test: Anticoagulant effect on human plasma in vitro (APTT determination); type: biochemical; conditions: for aPTT EC1.5×: concentration giving APTT of 1.5× blank control; for aPTT EC2×: concentration giving APTT of 2× blank control
# Method: Example 51: Determination of the Anticoagulant Effect of the Compounds of the Present Invention on Human Plasma In Vitro
# Plasma: Human blood was collected in a vacuum blood collection tube containing 3.2% sodium citrate (volume ratio 1:9), centrifuged at 3000 rpm for 10 min at room temperature, and the plasma was collected, divided into EP tubes, and stored at −80° C.
# Reagents: APTT assay kit (Activated partial thromboplastin time assay kit, mindray), calcium chloride solution.
# Instrument: coagulation meter (mindray, C2000-A)
# The frozen human plasma in aliquots was thawed at room temperature and mixed well. 10 mM test compound dissolved in 100% DMSO was diluted with 100% DMSO to 1500, 750, 375, 187.5, 93.75, 46.88, 23.44, 11.72 μM. 98 μL of human plasma was added to a 1.5 mL EP tube, then 2 μL of compounds of different concentrations were added, and 2 μL of 100% DMSO was added for the blank group. They were incubated under a water bath at 37° C. for 10 min, and the samples were placed in the corresponding position of the coagulation analyzer to conduct APTT determination of the compounds.
# Curve fitting was performed with GraphPad Prism software, and EC1.5× and EC2× values were calculated respectively, i.e., the concentrations of the compounds corresponding to the APTT of 1.5× and 2× blank control group.
# [3] = Rat pharmacokinetics; type: in vivo, SD rats; parameters: AUC: concentration or dose not given beside the values; conditions: for AUC / Cmax / Tmax / clearance / half-life / Vd: male, SD, plasma; for Vd: read-out: Vss
# Text: Example 53: Investigation of the Pharmacokinetic Characteristics of the Compounds of the Present Invention
# SD rats: male, 180-250 g, purchased from Guangdong Medical Laboratory Animal Center. Cynomolgus monkey: male, 4-6 kg, purchased from Guangzhou Chunsheng Biological Research Institute Co., Ltd. Beagle dog: male, 8-12 kg, developed in Kanglong Chemical (Ningbo) New Drug Technology Co., Ltd.
# Reagents: DMSO (dimethyl sulfoxide), PEG-400 (polyethylene glycol 400), normal brine, heparin, acetonitrile, formic acid, and propranolol (internal standard) are commercially available.
# Instrumentation: Thermo Fisher Scientific LC-MS (U300 UPLC, TSQ […] ULTRA triple quadrupole mass spectrometer).
# The compound was weighed and dissolved in DMSO-PEG-400-physiological brine (5:60:35, v/v/v) system. After the rats/monkeys were administered intravenously or by gavage, 200 μL of venous blood was collected at 5 min (not collected when administered by gavage), 15 min, 30 min, 1 h, 2 h, 4 h, 6 h, 8 h, and 24 h in heparinized EP tubes, centrifuged at 12000 rpm for 2 min, and the plasma was frozen at −80° C. for testing. A certain amount of the test substance was precisely weighed and dissolved in DMSO to 1 mg/mL, which was used as a stock solution. An appropriate amount of compound stock solution was accurately pipetted and diluted with acetonitrile to prepare a standard series of solutions. 20 μL of each of the above standard series solutions were accurately pipetted, added with 180 μL of blank plasma, vortexed and mixed to prepare plasma samples equivalent to plasma concentrations of 1, 3, 10, 30, 100, 300, 1000, 3000 and 5000 ng/mL. Two-sample analysis was performed for each concentration to establish a standard curve. 20 μL of plasma was taken out, added with 200 μL of internal standard propranolol (5 ng/mL) in acetonitrile, vortexed and mixed. It was centrifuged at 4000 rpm for 5 min, and the supernatant was collected for LC-MS analysis. LC-MS detection conditions were as follows:
# Chromatographic column: Thermo Scientific […] GOLD C-18 UPLC column, 100*2.1 mm, 1.9 μm.
# Mobile phase: water (0.1% formic acid)-acetonitrile for gradient elution according to the table below.
# After blood drug concentrations being detected by LC-MS, WinNonlin 6.1 software was used to calculate pharmacokinetic parameters by non-compartmental model method.
# Human Factor XIa, sequence (P03951 388-625 limits assumed): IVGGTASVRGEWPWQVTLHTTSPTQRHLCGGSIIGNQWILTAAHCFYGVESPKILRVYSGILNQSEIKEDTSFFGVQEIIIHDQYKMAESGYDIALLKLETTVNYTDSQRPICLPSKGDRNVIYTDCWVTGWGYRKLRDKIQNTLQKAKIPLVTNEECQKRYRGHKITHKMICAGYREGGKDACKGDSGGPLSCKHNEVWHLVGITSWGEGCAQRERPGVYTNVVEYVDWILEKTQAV
# Human Factor XIa, sequence (P03951 19-387 partner limits assumed): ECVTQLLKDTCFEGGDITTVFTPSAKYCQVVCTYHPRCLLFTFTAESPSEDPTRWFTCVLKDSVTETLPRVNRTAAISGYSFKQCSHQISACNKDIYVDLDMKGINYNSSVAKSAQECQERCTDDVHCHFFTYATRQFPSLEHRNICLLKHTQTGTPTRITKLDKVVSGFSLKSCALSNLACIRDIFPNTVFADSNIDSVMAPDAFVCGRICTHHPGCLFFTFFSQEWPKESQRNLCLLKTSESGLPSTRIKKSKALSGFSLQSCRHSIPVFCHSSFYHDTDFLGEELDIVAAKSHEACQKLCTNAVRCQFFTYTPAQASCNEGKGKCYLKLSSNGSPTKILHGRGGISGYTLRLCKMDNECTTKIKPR
SMILES,IC50 [1] [nM],aPTT EC1.5× [2] [µM],aPTT EC2× [2] [µM],also measured
"COc1cc(NC(=O)[C@H](Cc2ccccc2)n2nc(OC)c(-c3cc(Cl)ccc3C(C)=O)cc2=O)ccc1C(=O)O [Example 28, (S)-4-(2-(4-(2-acetyl-5-chlorophenyl)-3-methoxy-6-oxopyridazin-1(6H)-yl)-3-phenylpropan amido)-2-methoxybenzoic acid]",218,,,
CCOCC1CCN(c2ccc(CC(C(=O)Nc3ccc(C(=O)O)cc3)n3nc(OC)c(-c4cc(Cl)ccc4C(C)=O)cc3=O)cc2)C(=O)C1 (stereo not shown) [Example 5],8.89,1.18,4.414,
"COc1nn(C(Cc2cccc(C)c2)C(=O)Nc2ccc(C(=O)O)cc2)c(=O)cc1-c1cc(Cl)ccc1C(C)=O (stereo not shown) [Example 8, 4 (2-(4-(2-acetyl-5-chlorophenyl)-3-methoxy-6-oxopyridazine-1(6H)-yl)-3-(m-tolyl)propanamido)benzoic acid]",30.3,2.67,>15,
"COc1nn([C@@H](Cc2ccccc2)C(=O)Nc2ccc(C(=O)O)c(F)c2)c(=O)cc1-c1cc(Cl)ccc1C(C)=O [Example 14, (S)-4-(2-(4-(2-acetyl-5-chlorophenyl)-3-methoxy-6-oxopyridazin-1(6H)-yl)-3-phenylpropanamido)-2-fluorobenzoic acid]",59.3,,,
"COc1nn([C@@H](Cc2ccccc2)C(=O)Nc2ccc(C(=O)O)c(O)c2)c(=O)cc1-c1cc(Cl)ccc1C(C)=O [Example 29, (S)-4-(2-(4-(2-acetyl-5-chlorophenyl)-3-methoxy-6-oxopyridazin-1(6H)-yl)-3-phenylpropan amido)-2-hydroxybenzoic acid]",63.8,,,
"O=C(O)c1ccc(NC(=O)[C@H](Cc2ccccc2)n2ncc(-c3c(F)ccc(Cl)c3F)cc2=O)cc1 [Example 42, (S)-4-(2-(4-(3-chloro-2,6-difluorophenyl)-6-oxopyridazin-1(6H)-yl)-3-phenylpropanamido)benzoic acid]",1400,,,
"CC(=O)c1ccc(Cl)cc1-c1cc(=O)n([C@@H](Cc2ccccc2)C(=O)Nc2ccc(C(=O)O)cc2)nc1O [Example 34, (S)-4-(2-(4-(2-acetyl-5-chlorophenyl)-3-hydroxy-6-oxopyridazin-1(6H)-yl)-3-phenylpropanamido)benzoic acid]",140,,,
"COc1nn(C(Cc2ccc(C)cc2)C(=O)Nc2ccc(C(=O)O)cc2)c(=O)cc1-c1cc(Cl)ccc1C(C)=O (stereo not shown) [Example 7, 4-(2-(4-(2-acetyl-5-chlorophenyl)-3-methoxy-6-oxopyridazine-1(6H)-yl)-3-(p-tolyl)propanamido)benzoic acid]",24.2,2.073,12.58,
"COc1nn(C(Cc2ccc(NC(=O)C3CC3)cc2)C(=O)Nc2ccc(C(=O)O)cc2)c(=O)cc1-c1cc(Cl)ccc1C(C)=O (stereo not shown) [Example 33, 4-(2-(4-(2-acetyl-5-chlorophenyl)-3-methoxy-6-oxopyridazin-1(6H)-yl)-3-(4-(cyclopropaneformamido)phenyl)propanamido)benzoic acid]",19.9,1.527,7.691,
"COc1nn(C(Cc2ccc(NC(=O)C3CCC3)cc2)C(=O)Nc2ccc(C(=O)O)cc2)c(=O)cc1-c1cc(Cl)ccc1C(C)=O (stereo not shown) [Example 39, 4-(2-(4-(2-acetyl-5-chlorophenyl)-3-methoxy-6-oxopyridazin-1(6H)-yl)-3-(4-(cyclobutaneformamido)phenyl)propanamido)benzoic acid]",16.4,1.638,6.859,
"CC(=O)c1ccc(Cl)cc1-c1cnn([C@@H](Cc2ccccc2)C(=O)Nc2ccc(C(=O)O)cc2)c(=O)c1 [Example 1, (S)-4-(2-(4-(2-acetyl-5-chlorophenyl)-6-oxopyridazin-1(6H)-yl)-3-phenylpropanamido)benzoic acid]",,9.31,>30,
"CC(=O)c1ccc(Cl)cc1-c1cc(=O)n([C@@H](Cc2ccccc2)C(=O)Nc2ccc(C(=O)O)cc2)nc1OCC1CC1 [Example 20, (S)-4-(2-(4-(2-acetyl-5-chlorophenyl)-3-(cyclopropylmethoxy)-6-oxopyridazin-1(6H)-yl)-3-phenylpropanamido)benzoic acid]",20.6,2.418,28.32,
"CC(=O)c1ccc(Cl)cc1-c1cc(=O)n([C@@H](Cc2ccccc2)C(=O)Nc2ccc(C(=O)O)cc2)nc1OCCO [Example 6, (S)-4-(2-(4-(2-acetyl-5-chlorophenyl)-3-(2-hydroxyethoxy)-6-oxopyridazine-1(6H)-yl)-3-phenylpropanamido)benzoic acid]",,0.771,2.892,"F ([3]; ig): 1.7%; AUC ([3]; iv): 604 ng·h/mL; Cmax ([3]; iv): 1370 ng/mL; Tmax ([3]; iv): 4.98 min; clearance ([3]; iv): 27.6 mL/min/kg; half-life ([3]; iv): 9.72 min; Vd ([3]; iv): 0.432 L/kg; Cmax ([3]; po, ig): 30.5 ng/mL; Tmax ([3]; po, ig): 60 min"
"COc1nn(C(Cc2ccc(NC(=O)C3CCCC3)cc2)C(=O)Nc2ccc(C(=O)O)cc2)c(=O)cc1-c1cc(Cl)ccc1C(C)=O (stereo not shown) [Example 40, 4-(2-(4-(2-acetyl-5-chlorophenyl)-3-methoxy-6-oxopyridazin-1(6H)-yl)-3-(4-(cyclopentaneformamido)phenyl)propanamido)benzoic acid]",13.9,2.636,14.94,
"COc1nn([C@@H](Cc2ccccc2)C(=O)Nc2ccc(C(=O)O)c(Cl)c2)c(=O)cc1-c1cc(Cl)ccc1C(C)=O [Example 27, (S)-4-(2-(4-(2-acetyl-5-chlorophenyl)-3-methoxy-6-oxopyridazin-1(6H)-yl)-3-phenylpropanamido)-2-chlorobenzoic acid]",79.5,,,
"O=C(O)c1ccc(NC(=O)[C@H](Cc2ccccc2)n2cnc(-c3cc(Cl)ccc3-n3cc(Cl)nn3)cc2=O)cc1 [Compound A, (S)-4-(2-(4-(5-chloro-2-(4-chloro-1H-1,2,3-triazol-1-yl)phenyl)-6-oxopyrimidin-1(6H)-yl)-3-phenylpropanamido)benzoic acid, reference compound]",,,,"F ([3]; ig): 8.2%; AUC ([3]; iv): 1410 ng·h/mL; Cmax ([3]; iv): 4600 ng/mL; Tmax ([3]; iv): 4.98 min; clearance ([3]; iv): 11.9 mL/min/kg; half-life ([3]; iv): 35.3 min; Vd ([3]; iv): 0.124 L/kg; AUC ([3]; po, ig): 576 ng·h/mL; Cmax ([3]; po, ig): 180 ng/mL; Tmax ([3]; po, ig): 30 min; half-life ([3]; po, ig): 75.6 min"
"COc1nn(C(Cc2ccc(Br)cc2)C(=O)Nc2ccc(C(=O)O)cc2)c(=O)cc1-c1cc(Cl)ccc1C(C)=O (stereo not shown) [Example 3, 4-(2-(4-(2-acetyl-5-chlorophenyl)-3-methoxy-6-oxopyridazin-1(6H)-yl)-3-(4-bromophenyl)propanamido)benzoic acid]",51.2,,,
